Data taken from article PMC10510324, “A Biomimetic C-Terminal Extension Strategy for Photocaging Amidated Neuropeptides” (Journal of the American Chemical Society, 2023).

Columns and labels:
[1] = tested on: locus coeruleus; conditions: bath applied; cited from earlier work
From the text: Although extracellular peptidases are known to limit peptide concentrations in the nervous system, how they shape the temporal dynamics of neuropeptide signaling in the brain is poorly understood. For example, rapid proteolysis by peptidases localized near peptide receptors might limit the peak concentration of peptide and thus the degree of receptor activation.

[2] = target: T1, CCK2R (Mus musculus, UniProt P56481); assay: Whole-cell recording of membrane currents, PV interneurons of hippocampal CA1, acute brain slices; type: cell-based; conditions: antagonist 1 μM
T1 construct: from tissue; host or cells: acute mouse brain slices, PV interneurons of hippocampal CA1 (PvalbCre; Ai14 mice)
T1 sequence (P56481 1-453): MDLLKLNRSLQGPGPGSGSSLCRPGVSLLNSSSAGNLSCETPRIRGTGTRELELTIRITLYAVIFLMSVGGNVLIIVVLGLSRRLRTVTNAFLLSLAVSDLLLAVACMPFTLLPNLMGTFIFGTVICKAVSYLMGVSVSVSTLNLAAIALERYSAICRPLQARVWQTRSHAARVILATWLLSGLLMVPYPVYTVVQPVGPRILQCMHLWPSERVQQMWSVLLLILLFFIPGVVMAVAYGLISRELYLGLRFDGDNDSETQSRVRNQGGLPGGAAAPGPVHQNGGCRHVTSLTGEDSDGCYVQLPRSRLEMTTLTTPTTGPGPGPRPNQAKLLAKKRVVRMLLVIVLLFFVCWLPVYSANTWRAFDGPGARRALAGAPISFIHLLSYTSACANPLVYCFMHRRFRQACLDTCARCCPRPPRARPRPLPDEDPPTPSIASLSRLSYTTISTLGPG
From the text: Photoactivatable neuropeptides are powerful tools that can drive studies into the mechanisms of endogenous receptor signaling in acute brain slices.[3],[8],[40] To determine if NPP-caged peptides are compatible with such experiments, we established electrophysiological assays for measuring the activation of GRPR, OTR, NK1R, and CCK2R in acute brain slices taken from transgenic mice. These assays involved whole cell recordings of membrane currents from genetically defined neurons located in different brain regions where endogenous receptor activation produces inward, excitatory currents that facilitate action potential firing. Neuropeptide receptor-expressing cells were identified for fluorescence-guided, targeted electrophysiological recordings using transgenic mice that contain transgenes encoding Cre-recombinase under a promotor that is specific to the cell of interest, as well as a Cre-dependent tdTomato fluorescent protein via the Ai14 (Rosa26-lsl-tdTomato) reporter strain. […]
(A) Average inward currents over time after bath application of GRP(14-27)-NPP (3 μM, n = 5 cells from 4 mice) or GRP(14-27) (300 nM, n = 5 from 4 mice), recorded from fluorescently labeled VIP interneurons in layer 1 of the motor cortex. Data are expressed as the mean ± SEM. […] Data are expressed as the mean ± SEM. […] Data are expressed as the mean ± SEM. […] Data are expressed as the mean ± SEM. […]

| Molecule | increase of potency by peptidase inhibition [1] | block of light-evoked CCK(8S)-NPP current [2] |
| --- | --- | --- |
| enkephalin | 10 fold |  |
| Cc1cccc(NC(=O)N[C@@H]2N=C(c3ccccc3)c3ccccc3N(CC(=O)c3ccccc3C)C2=O)c1 [YM022, (R)-N-[2,3-Dihydro-1-[2-(2-methylphenyl)-2-oxoethyl]-2-oxo-5-phenyl-1H-1,4-benzodiazepin-3-yl]-N'-(3-methylphenyl)-urea] |  | strongly attenuated |
